Measured values as given in ChEMBL document CHEMBL5042496, “An unanticipated discovery towards novel naphthalimide corbelled aminothiazoximes as potential anti-MRSA agents and allosteric modulators for PBP2a” (Eur J Med Chem, 2022).
Converted amounts (≈) assume the structure as drawn.

Tests used:
[1] = system: Staphylococcus; experiment: Binding affinity to Staphylococcus aureus PBP2a measured after 6 hrs by ELISA; conditions: filed as positive allosteric modulator
[2] = Hemolytic activity in human RBC assessed as hemolysis incubated for 1 hr; type: toxicity, cell-based, Erythrocyte; conditions: red blood cells
[3] = system: Pseudomonas aeruginosa; experiment: Antibacterial activity against Pseudomonas aeruginosa assessed as bacterial growth inhibition measured after 24 hrs by two fold serial dilution technique; type: functional
[4] = system: Acinetobacter baumannii; experiment: Antibacterial activity against Acinetobacter baumannii assessed as bacterial growth inhibition measured after 24 hrs by two fold serial dilution technique; type: functional
[5] = system: Enterococcus faecium; experiment: Antibacterial activity against Enterococcus faecium assessed as bacterial growth inhibition measured after 24 hrs by two fold serial dilution technique; type: functional
[6] = system: Pseudomonas aeruginosa; experiment: Antibacterial activity against Pseudomonas aeruginosa ATCC 27853 assessed as bacterial growth inhibition measured after 24 hrs by two fold serial dilution technique; type: functional
[7] = system: Escherichia coli; experiment: Antibacterial activity against Escherichia coli assessed as bacterial growth inhibition measured after 24 hrs by two fold serial dilution technique; type: functional
[8] = system: Staphylococcus aureus; experiment: Antibacterial activity against methicillin-resistant Staphylococcus aureus assessed as bacterial growth inhibition measured after 24 hrs by two fold serial dilution technique; type: functional
[9] = system: Klebsiella pneumoniae; experiment: Antibacterial activity against Klebsiella pneumoniae assessed as bacterial growth inhibition measured after 24 hrs by two fold serial dilution technique; type: functional
[10] = system: Staphylococcus aureus; experiment: Antibacterial activity against Staphylococcus aureus assessed as bacterial growth inhibition measured after 24 hrs by two fold serial dilution technique; type: functional
[11] = system: Escherichia coli; experiment: Antibacterial activity against Escherichia coli ATCC 25922 assessed as bacterial growth inhibition measured after 24 hrs by two fold serial dilution technique; type: functional
[12] = system: Staphylococcus aureus; experiment: Antibacterial activity against Staphylococcus aureus ATCC 29213 assessed as bacterial growth inhibition measured after 24 hrs by two fold serial dilution technique; type: functional
[13] = system: Staphylococcus aureus; experiment: Antibacterial activity against Staphylococcus aureus ATCC 25923 assessed as bacterial growth inhibition measured after 24 hrs by two fold serial dilution technique; type: functional

SMILES | Activity [1] | HC50 at 1 h [2] | MIC [3] | MIC [4] | MIC [5] | MIC [6] | MIC [7] | MIC [8] | MIC [9] | MIC [10] | MIC [11] | MIC [12] | MIC [13]
CN(C)CCN1C(=O)c2cccc3c(N4CCNCC4)ccc(c23)C1=O | 4.74 µg/mL |  |  |  |  |  |  |  |  |  |  |  | 
CO/N=C(\C(=O)N1CCN(c2ccc3c4c(cccc24)C(=O)N(CCC(=O)O)C3=O)CC1)c1csc(N)n1 |  | 210 µg/mL | 16 µg/mL (≈ 29.8 µM) | 16 µg/mL (≈ 29.8 µM) | 16 µg/mL (≈ 29.8 µM) | 32 µg/mL (≈ 59.6 µM) | 8 µg/mL (≈ 14.9 µM) | 8 µg/mL (≈ 14.9 µM) | 128 µg/mL (≈ 239 µM) | 64 µg/mL (≈ 119 µM) | 64 µg/mL (≈ 119 µM) | 64 µg/mL (≈ 119 µM) | 16 µg/mL (≈ 29.8 µM)
CCCCCCCCCCCCN1C(=O)c2cccc3c(N4CCN(C(=O)/C(=N\OC)c5csc(N)n5)CC4)ccc(c23)C1=O |  | 359 µg/mL | 64 µg/mL (≈ 101 µM) | 16 µg/mL (≈ 25.3 µM) | 32 µg/mL (≈ 50.6 µM) | 64 µg/mL (≈ 101 µM) | 64 µg/mL (≈ 101 µM) | 64 µg/mL (≈ 101 µM) | 64 µg/mL (≈ 101 µM) | 16 µg/mL (≈ 25.3 µM) | 128 µg/mL (≈ 202 µM) | 128 µg/mL (≈ 202 µM) | 128 µg/mL (≈ 202 µM)
CO/N=C(\C(=O)N1CCN(c2ccc3c4c(cccc24)C(=O)N(c2nccs2)C3=O)CC1)c1csc(N)n1 |  | 311 µg/mL | 64 µg/mL (≈ 117 µM) | 16 µg/mL (≈ 29.2 µM) | 16 µg/mL (≈ 29.2 µM) | 64 µg/mL (≈ 117 µM) | 16 µg/mL (≈ 29.2 µM) | 2 µg/mL (≈ 3.65 µM) | 64 µg/mL (≈ 117 µM) | 16 µg/mL (≈ 29.2 µM) | 64 µg/mL (≈ 117 µM) | 32 µg/mL (≈ 58.4 µM) | 16 µg/mL (≈ 29.2 µM)
CO/N=C(\C(=O)N1CCN(c2ccc3c4c(cccc24)C(=O)N(Oc2ccccc2)C3=O)CC1)c1csc(N)n1 |  | 223 µg/mL | 32 µg/mL (≈ 57.5 µM) | 32 µg/mL (≈ 57.5 µM) | 64 µg/mL (≈ 115 µM) | 32 µg/mL (≈ 57.5 µM) | 2 µg/mL (≈ 3.59 µM) | 1 µg/mL (≈ 1.8 µM) | 32 µg/mL (≈ 57.5 µM) | 64 µg/mL (≈ 115 µM) | 128 µg/mL (≈ 230 µM) | 64 µg/mL (≈ 115 µM) | 16 µg/mL (≈ 28.7 µM)
CO/N=C(\C(=O)N1CCN(c2ccc3c4c(cccc24)C(=O)N(n2cnnc2)C3=O)CC1)c1csc(N)n1 |  | 255 µg/mL | 16 µg/mL (≈ 30.1 µM) | 16 µg/mL (≈ 30.1 µM) | 16 µg/mL (≈ 30.1 µM) | 64 µg/mL (≈ 120 µM) | 32 µg/mL (≈ 60.2 µM) | 2 µg/mL (≈ 3.76 µM) | 64 µg/mL (≈ 120 µM) | 128 µg/mL (≈ 241 µM) | 64 µg/mL (≈ 120 µM) | 1 µg/mL (≈ 1.88 µM) | 128 µg/mL (≈ 241 µM)
CO/N=C(\C(=O)N1CCN(c2ccc3c4c(cccc24)C(=O)N(NCCO)C3=O)CC1)c1csc(N)n1 |  | 325 µg/mL | 32 µg/mL (≈ 61.1 µM) | 16 µg/mL (≈ 30.6 µM) | 64 µg/mL (≈ 122 µM) | 32 µg/mL (≈ 61.1 µM) | 2 µg/mL (≈ 3.82 µM) | 4 µg/mL (≈ 7.64 µM) | 16 µg/mL (≈ 30.6 µM) | 64 µg/mL (≈ 122 µM) | 128 µg/mL (≈ 244 µM) | 64 µg/mL (≈ 122 µM) | 8 µg/mL (≈ 15.3 µM)
